In brackets after ≈: the same amount, converted by molar mass. Several values for one entry are separate records, joined by “and”; a condition that tells them apart may be missing. Equal values may be shown once.
Assays:
[1] = system: kidney cancer (OU-31) cell line; design: concentration or dose not given beside the values; details: cited from earlier work
[2] = system: kidney fibroblast (BHK-21) cells; details: cited from earlier work
[3] = system: CCD-19Lu normal lung fibroblast cells; experiment: MTT assay, in vitro cytotoxic activity on CCD-19Lu; format: cell-based; details: 24 hour incubation; for IC50: Homo sapiens, CCD 19Lu, read-out: IC50 values (µg/mL) CCDLul9 cell line
Description: (§1) The in vitro cytotoxic effects of the compounds were determined with the MTT assay. For this purpose, MTT test was performed using A549 and CCD-19Lu cell lines. After the cell lines used in the invention were centrifuged following taking them out from liquid nitrogen (-196 °C), the cells were cultured in a CO2 incubator comprising 5% CO2 at 37 °C in flasks containing 10% fetal bovine serum (FBS), where CCD-19Lu cells were cultured with Dulbecco's Modified Eagle's Medium (DMEM) and A549 cells were cultured with Roswell Park Memorial Institute (RPMI). The cells that reach the sufficient number for the assay, were seeded to 96 well plates such that 2×10^3 cells were placed in each well and at the same time, components at concentrations of 1-500 µg/mL were added to cells and they were incubated at 37 °C. At the end of the 24 hour incubation period, the MTT powder (5 mg/mL in 1 × phosphate buffered saline (PBS)) was added to each well (20 µL). After a 2-4 h period under the same conditions, the medium was removed from the plate and 100 µL of DMSO was added to each well to dissolve the dye and kept for 10 minutes. Then the plates were read at a wavelength of 540 nm using ELx808-IU Bio-Tek plate reader. The control cell viability which was not treated with the components was accepted to be 100% and the viability rates of the cells were expressed as %. […] According to the results obtained, the dose range was extended until the IC50 value was determined.
MTT assay is a frequently used method which measures the cytotoxic effects of the compounds on the cells by converting the yellow colored MTT stain into purple colored formazan crystals via the mitochondrial succinate dehydrogenase activity. In the cytotoxic activity tests of the compounds, A549 lung adenocarcinoma and CCDLu19 normal lung fibroblast cell lines were used.

[4] = system: A549 human lung adenocarcinoma cells; experiment: MTT assay, in vitro cytotoxic activity on A549; format: cell-based; details: Homo sapiens, A549, 24 hour incubation, read-out: IC50 values (µg/mL) A549 cell line
Description: as §1, with “determined. MTT assay is a frequently used method which measures the cytotoxic effects of the compounds on the cells by converting the yellow colored MTT stain into purple colored formazan crystals via the mitochondrial succinate dehydrogenase activity. In the cytotoxic activity tests of the compounds, A549 lung adenocarcinoma and CCDLu19 normal lung fibroblast cell lines were used.” for “determined.”

[5] = system: Akt; experiment: Akt colorimetric in cell ELISA in A549 cells; format: cell-based, human; details: 24 hours
Description: After 10.000 cells were seeded in the wells, they were kept in the incubator for 24 hours. […] Briefly, the medium was removed from the wells and 100 µL of 4% formaldehyde was added. The plate was incubated in a fume hood for 15 minutes. Formaldehyde was removed and the plate was washed twice with 1X […] (TBS) such as to be 100 µL/well. 1X TBS was removed and 100 µL 1X permeabilization solution was added to each well and it was kept at room temperature for 15 minutes. After the 1X permeabilization solution was removed, the wells were washed with 100 µL 1X TBS once. 1X TBS was removed and 100 µL quenching solution was added to each well and it was kept at room temperature for 20 minutes. Afterwards, this solution was removed. The plate was washed 1 time with 1X TBS and 100 µL blocking solution was added to the wells and it was kept at room temperature for 30 minutes. At the end of this period, the blocking solution was removed and 50 µL primary antibody was added to the wells. The plate was sealed with a cover and it was incubated overnight at 4 °C. The primary antibody was removed and the plate wells were washed 3 times with 100 µL 1X washing solution. After the washing solution was removed, 100 µL diluted horseradish peroxidase (HRP) conjugate was added and it was incubated at room temperature for 30 minutes. Later on this conjugate was removed and 100 µL 3,3',5,5'-tetramethylbenzidine (TMB) […] was added to each well and the absorbance values were read at 450 nm for 30 minutes. The experiment was carried out in triplicate. The values of the blank wells were subtracted from the values of the untreated control and treated cells. The Akt activity% was determined as the relative absorbance of treated versus untreated control cells.

SMILES	IC50 [3]	IC50 [4]	further results
O=C(CSc1nnc2n1N=C(c1ccc(F)cc1)CS2)c1ccc(F)cc1 [1-(4-fluorophenyl)-2-((6-(4-fluorophenyl)-7H-[1,2,4]triazolo[3,4-b][1,3,4]thiadiazine-3-yl)thio)ethanone]	–	–	growth [1]: 47.42%; inhibition [1]: 52.58%
Cc1ccc(C2=Nn3c(nnc3-c3ccncc3)SC2)cc1 [3-(pyridine-4-yl)-6-(p-tolyl)-7H-[1,2,4]triazolo[3,4-b][1,3,4]thiadiazine]	–	–	inhibition [2]: 72.6%
c1ccc(C2=Nn3c(CCc4ccc5c(c4)OCO5)nnc3SC2)cc1 [Compound 1, 3-[2-(1,3-Benzodioxole-5-yl)ethyl]-6-phenyl-7H-[1,2,4]triazolo[3,4-b][1,3,4]thiadiazine]	< 3.9 µg/mL	103 ± 11.5 µg/mL (≈ 284 µM)	–
O=[N+]([O-])c1ccc(C2=Nn3c(CCc4ccc5c(c4)OCO5)nnc3SC2)cc1 [Compound 2, 3-[2-(1,3-Benzodioxole-5-yl)ethyl]-6-(4-nitrophenyl)-7H-[1,2,4]triazolo[3,4-b][1,3,4]thiadiazine]	3.93 ± 0.06 µg/mL (≈ 9.6 µM)	380 ± 70.7 µg/mL (≈ 928 µM)	–
N#Cc1ccc(C2=Nn3c(CCc4ccc5c(c4)OCO5)nnc3SC2)cc1 [Compound 3, 3-[2-(1,3-Benzodioxole-5-yl)ethyl]-6-(4-cyanophenyl)-7H-[1,2,4]triazolo[3,4-b] [1,3,4]thiadiazine]	> 500 µg/mL	> 500 µg/mL	–
Fc1ccc(C2=Nn3c(CCc4ccc5c(c4)OCO5)nnc3SC2)cc1 [Compound 4, 3-[2-(1,3-Benzodioxole-5-yl)ethyl]-6-(4-fluorophenyl)-7H-[1,2,4]triazolo[3,4-b] [1,3,4]thiadiazine]	> 500 µg/mL	325 ± 35.4 µg/mL (≈ 850 µM)	–
Clc1ccc(C2=Nn3c(CCc4ccc5c(c4)OCO5)nnc3SC2)cc1 [Compound 5, 3-[2-(1,3-Benzodioxole-5-yl)ethyl]-6-(4-chlorophenyl)-7H-[1,2,4]triazolo[3,4-b] [1,3,4]thiadiazine]	< 3.9 µg/mL	> 500 µg/mL	–
Brc1ccc(C2=Nn3c(CCc4ccc5c(c4)OCO5)nnc3SC2)cc1 [Compound 6, 3-[2-(1,3-Benzodioxole-5-yl)ethyl]-6-(4-bromophenyl)-7H-[1,2,4]triazolo[3,4-b] [1,3,4]thiadiazine]	< 3.9 µg/mL	307 ± 58.6 µg/mL (≈ 692 µM)	–
COc1ccc(C2=Nn3c(CCc4ccc5c(c4)OCO5)nnc3SC2)cc1 [Compound 7, 3-[2-(1,3-Benzodioxole-5-yl)ethyl]-6-(4-methoxyphenyl)-7H-[1,2,4]triazolo[3,4-b] [1,3,4]thiadiazine]	44.3 ± 1.15 µg/mL (≈ 112 µM)	45.7 ± 5.51 µg/mL (≈ 116 µM)	–
Cc1ccc(C2=Nn3c(CCc4ccc5c(c4)OCO5)nnc3SC2)cc1 [Compound 8, 3-[2-(1,3-Benzodioxole-5-yl)ethyl]-6-(4-methylphenyl)-7H-[1,2,4] triazolo [3,4-b] [1,3,4]thiadiazine]	14.7 ± 6.43 µg/mL (≈ 38.8 µM)	> 500 µg/mL	–
c1ccc2cc(C3=Nn4c(CCc5ccc6c(c5)OCO6)nnc4SC3)ccc2c1 [Compound 10, 3-[2-(1,3-Benzodioxole-5-yl)ethyl]-6-(naphthalene-2-yl)-7H-[1,2,4]triazolo [3,4-b][1,3,4]thiadiazine]	< 3.9 µg/mL	4.1 ± 0.14 µg/mL (≈ 9.89 µM)	IC50 values (µg/mL) CCDLul9 cell line [3]: <3.90 µg/mL
Clc1cccc(C2=Nn3c(CCc4ccc5c(c4)OCO5)nnc3SC2)c1 [Compound 13, 3-[2-(1,3-Benzodioxole-5-yl)ethyl]-6-(3-chlorophenyl)-7H-[1,2,4]triazolo[3,4-b][1,3,4]thiadiazine]	> 500 µg/mL	> 500 µg/mL	–
c1csc(-c2ccc(C3=Nn4c(CCc5ccc6c(c5)OCO6)nnc4SC3)cc2)c1 [Compound 15, 3-[2-(1,3-Benzodioxole-5-yl)ethyl] -6-(4-(thiophen-2-yl)phenyl)-7H-[1,2,4] triazolo [3,4-b] [1,3,4]thiadiazine]	< 3.9 µg/mL	4 ± 0.2 µg/mL (≈ 8.96 µM)	IC50 values (µg/mL) CCDLul9 cell line [3]: <3.90 µg/mL
CCn1c(-c2nonc2N)nc2c(C#CC(C)(C)O)ncc(OC[C@H]3CCCNC3)c21 [GSK690693, reference compound]	–	6.75 ± 1.06 µg/mL (≈ 15.9 µM)	Akt Inhibition% ([5]; IC50/2 concentration (9: 2.88; 11: 0.37; 12: 0.40; 14: 1.32; GSK690693: 3.34; Cisplatin: 11.50 µg/mL)): 60.56±3.04%; Akt Inhibition% ([5]; IC50/4 concentration (9: 1.44; 11: 0.18; 12: 0.20; 14: 0.66; GSK690693: 1.69; Cisplatin: 5.75 µg/mL)): 59.23±9.77%; Akt Inhibition% ([5]; IC50 concentration (9: 5.75; 11: 0.73; 12: 0.80; 14: 2.63; GSK690693: 6.75; Cisplatin: 23.00 µg/mL)): 61.67% and 61.67±1.21%

From EP3958980B1, “TARGETED NOVEL TRIAZOLOTHIADIAZINE DERIVATIVES FOR THE TREATMENT OF LUNG CANCER” (Anadolu Universitesi, priority 2020, dated 2021)
